Reference: patent US9763445B2, “Safened herbicidal compositions comprising a pyridine carboxylic acid herbicide” (Dow AgroSciences, LLC, priority 2014, dated 2017)

Columns and labels:
giant foxtail (SETFA) = test: Postemergence greenhouse trial, % visual injury on giant foxtail; type: in vivo, Setaria faberi; settings: alone, 35 g/ha
Method: Seeds of the desired test plant species were planted in Sun Gro MetroMix® 306 planting mixture, which typically has a pH of 6.0 to 6.8 and an organic matter content of about 30 percent, in plastic pots with a surface area of 103.2 square centimeters (cm^2). When required to ensure good germination and healthy plants, a fungicide treatment and/or other chemical or physical treatment was applied. The plants were grown for 7-36 days (d) in a greenhouse with an approximate 14-hour (h) photoperiod which was maintained at about 23° C. during the day and 22° C. during the night. Nutrients and water were added on a regular basis and supplemental lighting was provided with overhead metal halide 1000-Watt lamps as necessary. The plants were employed for testing when they reached the second or third true leaf stage.
Weighed amounts of technical material were dissolved in a volume of 97:3 volume per volume (v/v) acetone/dimethyl sulfoxide (DMSO) to stock solutions. […] The concentrated stock solutions were diluted with an aqueous mixture of 1.5% v/v of Agri-dex crop oil concentrate to provide the appropriate application rates. Compound requirements are based upon a 12 milliliter (mL) application volume at a rate of 187 liters per hectare (L/ha). […]
The treated plants and control plants were placed in a greenhouse as described above and watered by sub-irrigation to prevent wash-off of the test compounds. After 20-22 d, the condition of the test plants as compared with that of the control plants was determined visually and scored on a scale of 0 to 100 percent where 0 corresponds to no injury and 100 corresponds to complete kill. The condition of the test plants was compared with that of the control plants as determined visually and scored on a scale of 0 to 100 percent, where 0 corresponds to no injury and 100 corresponds to complete kill. […]
The safener cloquintocet-mexyl was combined with compound 1, compound 2, compound 4, compound 5, and compound 6, and applied to corn/maize (ZEAMX) and spring wheat (TRZAS) and the phytotoxicity of the herbicidal compositions was measured. […]

green foxtail (SETVI) = test: Postemergence greenhouse trial, % visual injury on green foxtail; type: in vivo, Setaria viridis

Compound	% visual injury, Ob (giant foxtail (SETFA)) [%]	% visual injury, observed (Ob) (green foxtail (SETVI); compound 2 35 + CQC-m 0 g/ha) [%]	% visual injury, observed (Ob) (green foxtail (SETVI); compound 2 70 + CQC-m 0 g/ha) [%]	% visual injury, observed (Ob) (green foxtail (SETVI); compound 2 140 + CQC-m 0 g/ha) [%]
CCCCCC(C)OC(=O)COc1ccc(Cl)c2cccnc12 (stereo not shown) [CQC-m, cloquintocet-mexyl, reference compound]	0			
Nc1c(F)c(-c2ccc3cc[nH]c3c2F)nc(C(=O)OCc2ccccc2)c1Cl [compound 2]		100	97	98
